In PubChem BioAssay AID602211 (Sanford-Burnham Center for Chemical Genomics, 2012):
Calls of active or inactive are those of the source.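 How the source made its calls: active means mean IC50 at or below 10 µM; inactive means the rest.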

System: H9c2 cardiomyocytes, H2O2 protection, ATPLite viability, 2 h
Experiment: H2O2-induced H9c2 cell death suppression – ATPLite luminescence, set 2, dose response (AID 602211);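 further: potency is for protection so actives keep ATP signal up against peroxide killing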

Compound | IC50
COc1cc(/C=N/NC(=O)c2cccnc2)ccc1OS(=O)(=O)c1cc(C)ccc1C | > 79 µM (inactive)
COc1ccc(-c2csc(NC(=O)CCCc3nc4ccccc4c(=O)[nH]3)n2)cc1OC | 3.42 µM
COc1cccc(CN2CCN(C(=O)c3cc(-c4cccnc4)nc4ccc(C)cc34)CC2)c1 | 22.9 µM (inactive)
CC(C)(C)C(=O)Nc1ccc(C(=O)N/N=C/c2ccccc2OC(=O)c2ccccc2)cc1 | 6.72 µM
COc1cc(NC(=O)c2ccco2)c(OC)cc1NC(=O)c1cc(OC)c(OC)c(OC)c1 | 11.3 µM (inactive)
Cc1ccc(-c2nn3c(-c4ccco4)nnc3c3ccccc23)cc1S(=O)(=O)NCC1CCCO1 (stereo not drawn) | 10.6 µM (inactive)
O=C(N/N=C\c1ccccn1)c1cccc(C(=O)N/N=C\c2ccccn2)n1 | 2.07 µM
CCOC(=O)c1ccccc1OCc1cc(/C=N/NC(=O)c2cccnc2)ccc1OC | > 79 µM (inactive)
COc1ccc(CC(=O)N(Cc2ccccc2)c2ccccc2)cc1S(=O)(=O)N1CCOCC1 | 2.24 µM
OC1CCN(c2c3c(nc4cc(-c5cccc(F)c5)nn24)CCCC3)CC1 | 6.02 µM
O=C(Nc1cc(S(=O)(=O)N2CCOCC2)ccc1N1CCCCC1)c1cc(-c2ccccn2)nc2ccccc12 | 3.38 µM
O=C(O)c1ccc2c(c1)S(=O)(=O)c1cc(N3CCN(c4cnccn4)CC3)ccc1C2=O | > 79 µM (inactive)
CSc1nc2ccc(S(=O)(=O)Nc3c(C)n(C)n(-c4ccccc4)c3=O)cc2s1 | 3.1 µM
C[C@@H]1CN([C@H](C)CO)S(=O)(=O)c2ccc(C#Cc3ccccc3F)cc2O[C@H]1CN(C)C(=O)c1ccc2c(c1)OCO2 | > 79 µM (inactive)
Cc1ccc2nsnc2c1S(=O)(=O)N(Cc1ccco1)Cc1cc2cccc(C)c2[nH]c1=O | 13.2 µM (inactive)
COc1ccc(C(=O)Nc2cccc(NC(=O)c3ccc(OC)c(OC)c3)n2)cc1OC | 1.49 µM
COc1ccc(OC)c(N(CC(=O)Nc2cccnc2)S(=O)(=O)c2ccc(OC)c(OC)c2)c1 | 16.5 µM (inactive)

Compound | IC50
COc1cc(C(=O)Nc2cc3c(cc2N2CCCCC2)n(C)c(=O)n3C)cc(OC)c1OC | 11.2 µM (inactive)
COc1ccc(-n2c(/C=C/c3ccc(O)c(OC)c3)nc3ccccc3c2=O)cc1 | 1.58 µM
COc1ccc(-c2cc3nc(C)cc(N4CCN(C(=O)c5ccoc5)CC4)n3n2)cc1 | 69.1 µM (inactive)
COc1ccccc1N1CCN(C(=O)c2ccc3nc(-c4ccco4)c(-c4ccco4)nc3c2)CC1 | 7.68 µM
CCn1nc(C(=O)NNC(=O)c2cc(Cl)ccc2OC)c2ccccc2c1=O | 30 µM (inactive)
COc1cc(-c2cc(NC(C)=O)c3ncc(-c4ccccc4)n3c2)cc(OC)c1OC | 6.75 µM
CC(=O)c1cccc(Nc2nc3ccccc3n3cnnc23)c1 | 3.87 µM
COc1ccc(OC)c(Nc2nc(N)c([N+](=O)[O-])c(N3CCOCC3)n2)c1 | 11.8 µM (inactive)
COc1cc(NC(=O)c2cc([N+](=O)[O-])ccc2NC(=O)CN2CCN(c3ccccn3)CC2)cc(OC)c1 | 2.58 µM
COc1cccc(-c2cnc3c(NC=O)cc(-c4cccc(C(=O)N(C)C)c4)cn23)c1 | 12.6 µM (inactive)
NC(=O)c1nsc(C(=O)N(c2ccccc2)C(C(=O)NC2CCCC2)c2ccc3ncccc3c2)c1N (stereo not drawn) | 3.35 µM
COc1ccc(C=CC(=O)c2ccc3cc(OC)c(OC)cc3c2)cc1OC | 2.47 µM
CC(=O)N1CCN(c2ccccc2NC(=O)c2ccc(-c3cccc([N+](=O)[O-])c3)o2)CC1 | 23.7 µM (inactive)
COc1ccc(NC(=O)c2cc(-c3ccc(OC)c(OC)c3)nc3ccccc23)c(OC)c1 | 8.09 µM
CCOc1ccc(S(=O)(=O)N(C)CCO)cc1-c1nc2c(C(C)(C)C)nn(C)c2c(=O)[nH]1 | 5.22 µM
COc1ccc(-c2cc(C(F)(F)F)n3nc(C(=O)N4CCN(C(=O)c5ccco5)CC4)cc3n2)cc1 | 9.56 µM
